Tests used:
Assay type in all cases: in vivo
Details in all cases: evaluated after 13 days
[1] = test system: Echinochloa crus-galli (ECHCG); assay: Pre-emergence Test (Table B1); parameters: key: 5=81-100%; 4=61-80%; 3=41-60%; 2=21-40%; 1=0-20%; 0=inactive
Zea mays (ZEAMX) [2] = assay: Post-emergence Test (Table B2)
In short: (§1)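 Percentage damage scored 13 days after spraying. Seeds sown in pots, glasshouse 24/16 °C, 14 h light, 65% RH. Spray: acetone/water 50:50 + 0.5% Tween 20; 1000 g/ha unless stated otherwise.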

[3] = test system: Echinochloa crus-galli (ECHCG); assay: Post-emergence Test (Table B2)
In short: as §1

[4] = test system: Ipomoea hederacea (IPOHE); assay: Post-emergence Test (Table B2)
In short: as §1

[5] = test system: Amaranthus palmeri (AMAPA); assay: Post-emergence Test (Table B2)
In short: as §1

[6] = test system: Amaranthus retroflexus (AMARE); assay: Post-emergence Test (Table B2)
In short: as §1

Setaria faberi (SETFA) [7] = assay: Post-emergence Test (Table B2)
In short: as §1

[8] = test system: Amaranthus retroflexus (AMARE); assay: Pre-emergence Test (Table B1)
[9] = test system: Ipomoea hederacea (IPOHE); assay: Pre-emergence Test (Table B1); parameters: key: 5=81-100%; 4=61-80%; 3=41-60%; 2=21-40%; 1=0-20%; 0=inactive
Setaria faberi (SETFA) [10] = assay: Pre-emergence Test (Table B1); parameters: key: 5=81-100%; 4=61-80%; 3=41-60%; 2=21-40%; 1=0-20%; 0=inactive
Zea mays (ZEAMX) [11] = assay: Pre-emergence Test (Table B1); parameters: key: 5=81-100%; 4=61-80%; 3=41-60%; 2=21-40%; 1=0-20%; 0=inactive
[12] = test system: Amaranthus palmeri (AMAPA); assay: Pre-emergence Test (Table B1); parameters: key: 5=81-100%; 4=61-80%; 3=41-60%; 2=21-40%; 1=0-20%; 0=inactive
[13] = lower rate of 250 g per hectare

SMILES | percentage damage caused to the plant, ECHCG [1, 13] | percentage damage caused to the plant, ZEAMX (Zea mays (ZEAMX) [2]; [13]) | percentage damage caused to the plant, ECHCG [3, 13] | percentage damage caused to the plant, IPOHE [4, 13] | percentage damage caused to the plant, AMAPA [5, 13] | percentage damage caused to the plant, AMARE [6, 13] | percentage damage caused to the plant, SETFA (Setaria faberi (SETFA) [7]; [13]) | percentage damage caused to the plant, AMARE [8, 13] | percentage damage caused to the plant, IPOHE [9, 13] | percentage damage caused to the plant, SETFA (Setaria faberi (SETFA) [10]; [13]) | percentage damage caused to the plant, ZEAMX (Zea mays (ZEAMX) [11]; [13]) | percentage damage caused to the plant, AMAPA [12, 13] | also measured
CCn1c(C)c(-c2cc(C(=O)OC3CCCC3)c(Cl)cc2F)c(=O)c(C(=O)O)c1-c1ccc(Cl)c(Cl)c1 [Compound 24, 5-[4-chloro-5-(cyclopentoxycarbonyl)-2-fluoro-phenyl]-2-(3,4-dichlorophenyl)-1-ethyl-6-methyl-4-oxo-pyridine-3-carboxylic acid] | – | – | – | – | – | – | – | – | – | – | – | – | percentage damage caused to the plant, ECHCG ([1]; 1000 g/ha): 1 (1=0-20%); percentage damage caused to the plant, ZEAMX (Zea mays (ZEAMX) [2]; 1000 g/ha): 3 (3=41-60%); percentage damage caused to the plant, ECHCG ([3]; 1000 g/ha): 5 (5=81-100%); percentage damage caused to the plant, IPOHE ([4]; 1000 g/ha): 4 (4=61-80%); percentage damage caused to the plant, AMAPA ([5]; 1000 g/ha): 5 (5=81-100%); percentage damage caused to the plant, AMARE ([6]; 1000 g/ha): 5 (5=81-100%); percentage damage caused to the plant, SETFA (Setaria faberi (SETFA) [7]; 1000 g/ha): 5 (5=81-100%); percentage damage caused to the plant, AMARE ([8]; 1000 g/ha): 5 (5=81-100%); percentage damage caused to the plant, IPOHE ([9]; 1000 g/ha): 3 (3=41-60%); percentage damage caused to the plant, SETFA (Setaria faberi (SETFA) [10]; 1000 g/ha): 1 (1=0-20%); percentage damage caused to the plant, ZEAMX (Zea mays (ZEAMX) [11]; 1000 g/ha): 0; percentage damage caused to the plant, AMAPA ([12]; 1000 g/ha): 5 (5=81-100%)
CCn1c(C)c(-c2cc(C(=O)OC(C)COC)c(Cl)cc2F)c(=O)c(C(=O)O)c1-c1ccc(Cl)c(Cl)c1 (stereo not drawn) [Compound 26, 5-[4-chloro-2-fluoro-5-(2-methoxy-1-methyl-ethoxy)carbonyl-phenyl]-2-(3,4-dichlorophenyl)-1-ethyl-6-methyl-4-oxo-pyridine-3-carboxylic acid] | – | – | – | – | – | – | – | – | – | – | – | – | percentage damage caused to the plant, ECHCG ([1]; 1000 g/ha): 4 (4=61-80%); percentage damage caused to the plant, ZEAMX (Zea mays (ZEAMX) [2]; 1000 g/ha): 5 (5=81-100%); percentage damage caused to the plant, ECHCG ([3]; 1000 g/ha): 5 (5=81-100%); percentage damage caused to the plant, IPOHE ([4]; 1000 g/ha): 5 (5=81-100%); percentage damage caused to the plant, AMAPA ([5]; 1000 g/ha): 5 (5=81-100%); percentage damage caused to the plant, AMARE ([6]; 1000 g/ha): 5 (5=81-100%); percentage damage caused to the plant, SETFA (Setaria faberi (SETFA) [7]; 1000 g/ha): 5 (5=81-100%); percentage damage caused to the plant, AMARE ([8]; 1000 g/ha): 5 (5=81-100%); percentage damage caused to the plant, IPOHE ([9]; 1000 g/ha): 3 (3=41-60%); percentage damage caused to the plant, SETFA (Setaria faberi (SETFA) [10]; 1000 g/ha): 4 (4=61-80%); percentage damage caused to the plant, ZEAMX (Zea mays (ZEAMX) [11]; 1000 g/ha): 0; percentage damage caused to the plant, AMAPA ([12]; 1000 g/ha): 5 (5=81-100%)
CCn1c(C)c(-c2cc(C(=O)OC3CC3)c(Cl)cc2F)c(=O)c(C(=O)O)c1-c1ccc(C#N)c(F)c1 [Compound 39, 5-[4-chloro-5-(cyclopropoxycarbonyl)-2-fluoro-phenyl]-2-(4-cyano-3-fluoro-phenyl)-1-ethyl-6-methyl-4-oxo-pyridine-3-carboxylic acid] | 0 | 5 (5=81-100%) | 4 (4=61-80%) | 4 (4=61-80%) | 5 (5=81-100%) | 5 (5=81-100%) | 5 (5=81-100%) | 5 (5=81-100%) | 4 (4=61-80%) | 0 | 0 | 5 (5=81-100%) | –
CCn1c(C)c(-c2cc(C(=O)OC(C)CC(=O)OC)c(Cl)cc2F)c(=O)c(C(=O)O)c1-c1ccc(Cl)c(Cl)c1 (stereo not drawn) [Compound 42, 5-[4-chloro-2-fluoro-5-(3-methoxy-1-methyl-3-oxo-propoxy)carbonyl-phenyl]-2-(3,4-dichlorophenyl)-1-ethyl-6-methyl-4-oxo-pyridine-3-carboxylic acid] | 0 | 3 (3=41-60%) | 2 (2=21-40%) | 3 (3=41-60%) | 4 (4=61-80%) | 5 (5=81-100%) | 2 (2=21-40%) | 3 (3=41-60%) | 0 | 0 | 1 (1=0-20%) | 1 (1=0-20%) | –
C#CCC(C)OC(=O)c1cc(-c2c(C)n(CC)c(-c3ccc(Cl)c(Cl)c3)c(C(=O)O)c2=O)c(F)cc1Cl (stereo not drawn) [Compound 43, 5-[4-chloro-2-fluoro-5-(1-methylbut-3-ynoxycarbonyl)phenyl]-2-(3,4-dichlorophenyl)-1-ethyl-6-methyl-4-oxo-pyridine-3-carboxylic acid] | 0 | 4 (4=61-80%) | 4 (4=61-80%) | 2 (2=21-40%) | 5 (5=81-100%) | 5 (5=81-100%) | 3 (3=41-60%) | 2 (2=21-40%) | 0 | 0 | 0 | 0 | –
CCn1c(C)c(-c2cc(C(=O)OC(C)C#N)c(Cl)cc2F)c(=O)c(C(=O)O)c1-c1ccc(Cl)c(Cl)c1 (stereo not drawn) [Compound 44, 5-[4-chloro-5-(1-cyanoethoxycarbonyl)-2-fluoro-phenyl]-2-(3,4-dichlorophenyl)-1-ethyl-6-methyl-4-oxo-pyridine-3-carboxylic acid] | 0 | 2 (2=21-40%) | 3 (3=41-60%) | 4 (4=61-80%) | 5 (5=81-100%) | 5 (5=81-100%) | 3 (3=41-60%) | 5 (5=81-100%) | 2 (2=21-40%) | 0 | 0 | 5 (5=81-100%) | –
CCn1c(C)c(-c2cc(C(=O)OC3CC3)c(Cl)cc2F)c(=O)c(C(=O)O)c1-c1ccc(C#N)c(Cl)c1 [Compound 46, 2-(3-chloro-4-cyano-phenyl)-5-[4-chloro-5-(cyclopropoxycarbonyl)-2-fluoro-phenyl]-1-ethyl-6-methyl-4-oxo-pyridine-3-carboxylic acid] | 0 | 5 (5=81-100%) | 5 (5=81-100%) | 4 (4=61-80%) | 5 (5=81-100%) | 5 (5=81-100%) | 5 (5=81-100%) | 5 (5=81-100%) | 2 (2=21-40%) | 1 (1=0-20%) | 0 | 5 (5=81-100%) | –

From patent US20260060250A1, “HERBICIDAL PYRIDONE DERIVATIVES” (SYNGENTA CROP PROTECTION AG, priority 2022, published 2026)
